Reference: patent US7955838B2, “Methods and device for adhesive control of internal cell organisation” (Institut Curie, priority 2003, dated 2011)

Test system: HeLa cells stably expressing centrin1-GFP
Test: Nocodazole treatment of premitotic cells on [L] fibronectin micropatterns (centrosome separation, cell rounding, spindle orientation)
Assay type: cell-based, human
Details: for Distribution of spindle orientations after nocodazole wash-out: after wash-out of 10^−7 M nocodazole, [L] patterns, versus non-treated cells
Experimental: HeLa, human epithelial cells, stably expressing centrin1-GFP (Piel et al. J. Cell Biol. 149, 317-329 (2000), were cultured in Dulbecco Modified Eagle Medium with 10% foetal calf serum, 1% penicillin and streptomycin, and 1% glutamine at 37° C. Cells were synchronised using a double thymidine block and then removed from their flask using […], 10 minutes at 37° C. After removing the […] by centrifugation, cells were resuspended in DMEM with 1% FCS and deposited on the printed coverslip at a density of 10^4 cells/cm^2. The inventors used an inverted Leica DMIRBE microscope with an heated and motorized stage combined with a home-made plastic cell chamber to hold the printed glass coverslip, which was covered by a porous membrane allowing CO2 buffering at pH-7.4. Metamorph software (Universal Imaging) was used for image acquisition. Numerous cell divisions were followed using a time-lapse phase contrast on a multi-fields acquisition at a frame rate of one picture every 3 minutes with a 10× magnitude objective. Centrosome movements were followed during mitosis with a 63× apochromat objective lens (Leica) using fluorescent Z acquisitions through a green filter and a phase contrast picture of the cell bottom every 5 minutes. A software has been developed. This software was able to automatically recognise a single fluorescent micropattern within a field and detect the presence of a single cell attached to it. Individual cell divisions were extracted from the 10× phase contrast time-lapse recordings and every picture automatically segmented using a wavelet decomposition and fitted with an ellipse (FIG. 1b). The moment of cell elongation in anaphase was precisely detected, as the shape factor, defined as the ellipse length ratio, suddenly dropped from more than 0.9 to less than 0.6 (FIG. 1c). The angle between the major axis of the ellipse, corresponding to spindle orientation, and the vertical reference of the pattern oriented as shown on FIG. 2 was then recorded. The position of the centre of the round mitotic cell with respect to the pattern was also automatically recorded 6 minutes before anaphase.[…]. The mechanisms by which the premitotic actin network is remodeled during mitotic cortical retraction and the correlative formation of actin-rich retraction fibers are not fully understood. In order to address whether spindle assembly had to take place during the remodelling of the actin network to be correctly oriented, centrosomes were prevented from separating during cell retraction on [L] patterns by treating premitotic cells with 10^-7 M nocodazole during one hour. […] After nocodazole washout, centrosomes separated and formed a bipolar spindle (FIG. 4C). […] RFs are good candidates for guiding spindle orientation as they are maintained despite nocodazole treatment.

[1] = 10^−7 M nocodazole during one hour, premitotic cells on [L] patterns

## COC(=O)Nc1nc2ccc(C(=O)c3cccs3)cc2[nH]1 [nocodazole]
[1]
  Effect on cell rounding: did not block cell rounding
  Effect on mitosis / centrosome separation: blocked cells in metaphase with unseparated centrosomes
  Distribution of spindle orientations after nocodazole wash-out: still preferentially orientated parallel to the hypotenuse of the triangle
Listed as NZ
  Distribution of spindle orientations after nocodazole wash-out: spindles are still able to mainly orient in round cell bodies as in control cells
nocodazole-treated mitotic cells on [L] patterns
  Retracting fibers (RFs) under nocodazole treatment: maintained
